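Test compounds were applied to cells in 96-well plates for 48 hours at 5 doses. GI50: concentration for 50% inhibition of growth.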 Calls of active or inactive are those of the source. No stated cut-off is given here; in the data, active = GI50 up to about 1.1 µM and inactive = higher.
Columns and labels:
Experiment in all cases: NCI tumour cell line growth inhibition, 48 h
SK-MEL-5 = tested on: SK-MEL-5
SR = tested on: SR
Hs-578T = tested on: Hs-578T
TK-10 = tested on: TK-10
MDA-MB-435 = tested on: MDA-MB-435
KM12 = tested on: KM12
MOLT-4 = tested on: MOLT-4
SF-295 = tested on: SF-295
OVCAR-3 = tested on: OVCAR-3
DU-145 = tested on: DU-145
HCT-15 = tested on: HCT-15
MDA-MB-231 = tested on: MDA-MB-231
HCT-116 = tested on: HCT-116
NCI-H460 = tested on: NCI-H460
Malme-3M = tested on: Malme-3M
EKVX = tested on: EKVX
COLO 205 = tested on: COLO 205
UACC-257 = tested on: UACC-257
A498 = tested on: A498
NCI-H23 = tested on: NCI-H23
K562 = tested on: K562
RXF 393 = tested on: RXF 393
RPMI-8226 = tested on: RPMI-8226
NCI-H522 = tested on: NCI-H522
M14 = tested on: M14
HOP-92 = tested on: HOP-92
SF-268 = tested on: SF-268
MDA-N = tested on: MDA-N
ACHN = tested on: ACHN
IGROV-1 = tested on: IGROV-1
SNB-19 = tested on: SNB-19
HCC 2998 = tested on: HCC 2998
HOP-62 = tested on: HOP-62
SN12C = tested on: SN12C
NCI/ADR-RES = tested on: NCI/ADR-RES
SW-620 = tested on: SW-620
T47D = tested on: T47D
SK-MEL-2 = tested on: SK-MEL-2
OVCAR-4 = tested on: OVCAR-4
HT-29 = tested on: HT-29
UACC-62 = tested on: UACC-62
CCRF-CEM = tested on: CCRF-CEM
SF-539 = tested on: SF-539
CAKI-1 = tested on: CAKI-1
SK-MEL-28 = tested on: SK-MEL-28
MCF7 = tested on: MCF7
U-251 = tested on: U-251
SK-OV-3 = tested on: SK-OV-3
SNB-75 = tested on: SNB-75
NCI-H226 = tested on: NCI-H226
OVCAR-5 = tested on: OVCAR-5
LOX IMVI = tested on: LOX IMVI
UO-31 = tested on: UO-31
OVCAR-8 = tested on: OVCAR-8
786-0 = tested on: 786-0
A549 = tested on: A549
PC-3 = tested on: PC-3
HL-60 = tested on: HL-60
BT-549 = tested on: BT-549

Measured: GI50

CN(C)CCNc1nc2c(no[n+]2[O-])c2ccccc12.[O-][Cl+3]([O-])([O-])O
18 µM: HCT-15
inactive: SK-MEL-5 15.2 µM | SR 15.1 µM | Hs-578T 40.6 µM | TK-10 24.9 µM | MDA-MB-435 18 µM | KM12 21.1 µM | MOLT-4 32.4 µM | SF-295 28 µM | OVCAR-3 30.8 µM | DU-145 6.19 µM | MDA-MB-231 14.8 µM | HCT-116 12.4 µM | NCI-H460 19.5 µM | Malme-3M 22.5 µM | EKVX 26.1 µM | COLO 205 16.9 µM | UACC-257 16.8 µM | A498 13.7 µM | NCI-H23 34.4 µM | K562 28.8 µM | RXF 393 17.5 µM | RPMI-8226 52.7 µM | NCI-H522 24.4 µM | M14 15.7 µM | HOP-92 22.1 µM | SF-268 4.42 µM | MDA-N 28.9 µM | ACHN 13.8 µM | IGROV-1 18 µM | SNB-19 20.7 µM | HCC 2998 28.2 µM | HOP-62 13 µM | SN12C 25.6 µM | NCI/ADR-RES 31.2 µM | SW-620 11.1 µM | T47D 57.9 µM | SK-MEL-2 19.4 µM | OVCAR-4 30.4 µM | HT-29 27.6 µM | UACC-62 21 µM | CCRF-CEM 30.3 µM | SF-539 11.5 µM | CAKI-1 26.1 µM | SK-MEL-28 18.5 µM | MCF7 19.7 µM | U-251 31.5 µM | SK-OV-3 32.1 µM | SNB-75 23.7 µM | NCI-H226 16.1 µM | OVCAR-5 38 µM | LOX IMVI 16.8 µM | UO-31 19.5 µM | OVCAR-8 14.6 µM | 786-0 18.7 µM | A549 16.7 µM | PC-3 28 µM

COC(=O)C1CCCN1C(=O)C(Cc1cn(S(=O)(=O)c2ccc(C)cc2)cn1)NC(=O)OC(C)(C)C (stereo not drawn)
inactive: SK-MEL-5 > 100 µM | SR > 100 µM | Hs-578T > 100 µM | TK-10 > 100 µM | HL-60 > 100 µM | KM12 > 100 µM | MOLT-4 > 100 µM | BT-549 > 100 µM | MDA-MB-231 > 100 µM | HCT-116 > 100 µM | NCI-H460 > 100 µM | Malme-3M > 100 µM | EKVX > 100 µM | COLO 205 > 10 µM | UACC-257 > 100 µM | A498 > 100 µM | NCI-H23 > 100 µM | K562 > 100 µM | RXF 393 > 100 µM | RPMI-8226 > 100 µM | M14 > 100 µM | HOP-92 > 100 µM | MDA-N > 100 µM | ACHN > 100 µM | IGROV-1 > 100 µM | SNB-19 > 100 µM | HCC 2998 > 100 µM | HOP-62 > 100 µM | SN12C > 100 µM | SW-620 > 100 µM | SK-MEL-2 > 100 µM | HT-29 > 100 µM | UACC-62 > 100 µM | CCRF-CEM > 100 µM | SK-MEL-28 > 100 µM | MCF7 > 100 µM | U-251 > 100 µM | SNB-75 > 100 µM | NCI-H226 > 100 µM | OVCAR-5 > 100 µM | UO-31 > 100 µM | OVCAR-8 > 100 µM | 786-0 > 100 µM | A549 > 100 µM | PC-3 > 100 µM
> 100 µM: HCT-15
